One data set concerns MDA-MB-231 cells. As to the kind of experiment: In vitro mRNA transfection with HK polyplexes (luciferase mRNA, luciferase activity). The note with it: for RLU/μg-Protein (luciferase activity): mRNA 1 μg, 24 h. The format is cell-based. How it is done: FIG. 1. Comparison of H3K(+H)4b and H3K4b peptides as carriers of mRNA. To form the HK polyplexes, the mRNA (1 μg) was mixed with 3 different ratios of the HK ([…]) polymer for 30 minutes. The HK polyplexes were then added to the cells for 24 h before the luciferase activity was measured. ****, H3K(+H)4b vs H3K4b, P<0.0001.
In vitro mRNA Transfection. Several HK polymers were examined for their ability to carry a luciferase-expressing mRNA (CleanCap Firefly Luciferase mRNA, Trilink Biotechnologies, Inc, San Diego, CA) into MDA-MB-231 cells (America Type Tissue Culture, Manassas, VA). In brief, 3×10^4 cells were plated into a 24-well plate containing 500 μl of DMEM and 10% fetal bovine serum (ThermoFisher Scientific, Waltham, MA). After 24 h, when the cells were 60 to 80% confluent, the media in each well was changed to Opti-MEM (ThermoFisher Scientific). To prepare HK polyplexes, mRNA (1 μg) in 50 μl of Opti-MEM was briefly mixed well with one of the HK polymers (4 to 12 μg) and maintained at room temperature for 30 min. This polyplex was then added dropwise to the cells. After four h, the Opti-MEM media was removed and replaced with 0.5 ml of DMEM/10% serum (0.5 ml). Twenty-four hours later, the cells were lysed, and the luciferase activity (Promega Corporation, Madison, WI) was measured.
To obtain the data in Table 4, luciferase-expressing mRNA (1 μg) in 50 μl of Opti-MEM was briefly mixed with one of the HK polymers (4, 8, or 12 μg) and maintained at room temperature for 30 min. The resulting polyplexes were added dropwise to the MDA-NM-231 cells and after four h, the Opti-MEM media was removed and replaced with DMEM/10% serum. Twenty-four hours later, the cells were lysed, and the luciferase activity was measured

The next data set concerns mRNA. The data set is described as follows: Gel retardation assay of HK polymer/mRNA polyplexes. The format is physicochemical. The note with it: 1:2 and 1:1 ratios (wt:wt; peptide:mRNA). How it is done: FIG. 3. Gel retardation assay. After H3K(+H)4b or H3K4b carriers were mixed with mRNA at the various ratios shown in the figure (wt:wt; peptide:mRNA, mRNA was 1 μg in each) for 30 min, the HK polyplexes were loaded onto the gel (1% agarose). Electrophoresis was carried out at a constant voltage of 75 V for 30 min in TAE buffer and then stained with Sybr Gold as detailed herein. In first lane, RNA standard (New England Biolabls, B0363A) was loaded whereas in the second lane, the control, luciferase mRNA without a carrier was loaded into the well. In subsequent lanes, various ratios of mRNA:HK were loaded into wells.
Gel Retardation Assay. Various amounts of HK polymers were mixed with […] of mRNA and incubated for 30 min at room temperature. Specifically, the following HK polymer/mRNA ratios (w/w) were prepared in water: 1/2; 1/1; 2/1, 4/1, 8/1. After 30 min, the HK polyplex was loaded onto the gel (1% agarose, Sigma-Aldrich; 10× BlueJuice Gel loading buffer, ThermoFisher Scientific), electrophoresis was then carried out at a constant voltage of 75 V for 30 min in TAE buffer (Quality Biologicals, Gaithersburg, MD). The mRNA was stained with Sybr Gold Nucleic Acid dye (SG, 1×) (ThermoFisher Scientific) for 30 min before exposure to the UV imager (ChemiDoc Touch, BIO-RAD, Hercules, CA).

Data set [1] in a line: Acid-base titration of HK polymer solutions. The format is physicochemical. The note with it: pH titration curves, 5 mg/ml. Here is the method: FIG. 2. Titration of different HK peptide solutions. Solutions of polymers (5 mg/ml) (H2K4b, H3K4b, H3K(+H)4b, and H4K4b) were adjusted to pH 3 (initial volume—1 ml) and then […] aliquots of 0.05 N NaOH were stepwise added and the pH measured.
Acid-Base Titration. After polymer solutions (e.g. containing one or more of H2K4b, H3K4b, H3K(+H)4b, and H4K4b) were adjusted to pH 3.0 (5 mg/mil; initial volume—1 mil), aliquots (5 μl) of NaOH (0.05 N) were stepwise added with the pH measured (FiveEasy™ meter; InLab Solids Pro-ISM pH electrode, Mettler Toledo, Columbus, OH). Titration was stopped at about pH 9.0.

Data on one substance can be found in patent US20230313181A1, “HISTIDINE-LYSINE POLYMERS AND METHODS FOR DELIVERING MRNA USING THE SAME” (UNIVERSITY OF MARYLAND, BALTIMORE, priority 2019, published 2023).

Bridges are numbered along the chain shown (N, C = ends). Roman numbers before positions name the chains, in order. Where no end group is shown, it is not given here.

As for “I: KHHHKHHHKHHHHKHHHKKKK-NH2 / II: KHHHKHHHKHHHHKHHHK / III: KHHHKHHHKHHHHKHHHK / IV: KHHHKHHHKHHHHKHHHK (amide I:19-IV:C, I:20-III:C, I:21-II:C) [H3K(+H)4b]”, the “luciferase expression, fold greater than with H3K4b” value in the data set with MDA-MB-231 cells (4:1 ratio (HK:mRNA; wt:wt)) came to 10 fold. Further, in the data set on MDA-MB-231 cells (luciferase mRNA, HK polyplex), the “effectiveness as carrier of mRNA (in words)” value is recorded as “markedly better as a carrier of mRNA”. In addition, the figures for the “RLU/μg-Protein (luciferase activity)” value in the data set on MDA-MB-231 cells (ratio mRNA:polymer 1:4 (wt:wt)), in the data set with MDA-MB-231 cells (ratio mRNA:polymer 1:8 (wt:wt)) and with MDA-MB-231 cells (ratio mRNA:polymer 1:12 (wt:wt)) were 1532.9 ± 122.9 RLU/μg-Protein, 1656.3 ± 202.5 RLU/μg-Protein and 1033.4 ± 197^ RLU/μg-Protein, respectively. Besides, the “retardation of mRNA at low ratios compared with H3K4b (in words)” value with mRNA is reported as “markedly less retarded”. The “buffering profile / buffering capacity (in words)” value in data set [1] is given as “minimal differences in their buffering profile”.
